Activity calls are given as the source filed them. The calls are words filed in the database; no cut-off is given here.
These compounds were tested on KB (assay: Cytotoxicity against human KB cells at 3 uM).
Assay type: functional
Work on `CN1C(=O)N[C@H]2[C@@H]3NC(=O)c4ccc(Br)n4[C@@H]3C[C@]21O` [AGELASTATIN A] yielded an Activity of 100%.

These compounds were tested on KB (assay: Cytotoxicity against human KB cells at 30 uM).
Assay type: functional
With `N=C1N=C(NCCS(=O)(=O)O)/C(=C/C(O)CNC(=O)c2cc(Br)c(Br)[nH]2)N1` (centres undefined) the Activity was “inactive”.
For `CN1C(=O)N[C@H]2[C@@H]3NC(=O)c4ccc(Br)n4[C@@H]3C[C@]21O` [AGELASTATIN A], the Activity was 100%.
In the case of `Cc1c[nH]c(=O)[nH]c1=O`, the Activity is reported as “inactive”.
For `CO[C@@]12C[C@@H]3[C@@H](NC(=O)c4ccc(Br)n43)[C@@H]1NC(=O)N2C`, the Activity was “inactive”.
In the case of `O=C1N[C@H]2[C@@H]3NC(=O)c4ccc(Br)n4[C@@H]3C[C@@]2(O)N1`, the Activity is reported as “inactive”.
With `Nc1nc2c([nH]1)c1c(c3[nH]c(N)nc32)[C@H](CNC(=O)c2cc(Br)c(Br)[nH]2)[C@H]1CNC(=O)c1cc(Br)c(Br)[nH]1` the Activity was “inactive”.
`NC(=O)c1cc(Br)c(Br)[nH]1` was tested, and the Activity was “inactive”.
With `O=C1NCC(O)n2c1cc(Br)c2Br` (centres undefined) the Activity was “inactive”.
`O=C1N[C@H]2[C@@H]3NC(=O)c4cc(Br)c(Br)n4[C@@H]3C[C@@]2(O)N1` was tested, and the Activity was “inactive”.
`C[C@]1(COC(=O)c2cc(Br)c[nH]2)C[C@@H](C(=O)O)N=CN1` was tested, and the Activity was “inactive”.
For `Nc1nc([C@H]2[C@H](CNC(=O)c3cc(Br)c[nH]3)[C@@H](CNC(=O)c3cc(Br)c[nH]3)[C@@H]2c2c[nH]c(N)n2)c[nH]1`, the Activity was “inactive”.
In the case of `N=C1N=C(NCCS(=O)(=O)O)/C(=C/CCNC(=O)c2cc(Br)c(Br)[nH]2)N1`, the Activity is reported as “inactive”.
With `c1ccc2c(-c3c[nH]c(-c4c[nH]c5ccccc45)n3)c[nH]c2c1` the Activity was “inactive”.

Reference: ChEMBL document CHEMBL1157067, “Agelastatin E, agelastatin F, and benzosceptrin C from the marine sponge Agelas dendromorpha” (2010)
